According to patent US6969729B2, “Use of isatin derivatives as ion channel activating agents” (Neurosearch A/S, priority 1998, dated 2005):

| melting point | Structure (SMILES) |
| --- | --- |
| 250 to 251 °C | O=C1Nc2ccc(Br)cc2C1=NO [Compound 1a, 5-Bromoisatin 3-oxime] |
| 232 to 236 °C | CN1C(=O)C(=NO)c2cc(Cl)c(Cl)cc21 [Compound 1b, 5,6-dichloro-1-methylisatin 3-oxime] |
| 140 to 142 °C | CN1C(=O)C(=NO)c2c1ccc(Cl)c2Cl [Compound 1d, 4,5-dichloro-1-methylisatin 3-oxime] |
| > 200 °C | CN1C(=O)C(=NO)c2ccc(Cl)c(Cl)c21 [Compound 1j, 6,7-Dichloro-1-methylisatin 3-oxime] |
| 263 to 264 °C | O=C1Nc2c(ccc(F)c2F)C1=NO [Compound 1o, 6,7-Difluoroisatin 3-oxime] |
| 283 to 284 °C | Cc1ccc2c(c1C)NC(=O)C2=NO [Compound 1p, 6,7-Dimethylisatin 3-oxime] |
| 274 to 275 °C | O=C1Nc2cc(Cl)c(Cl)cc2C1=NO [Compound 1q, 5,6-Dichloroisatin 3-oxime] |
| > 300 °C | Cc1c(Cl)ccc2c1NC(=O)C2=NO [Compound 1u, 6-Chloro-7-methylisatin 3-oxime] |
| 286 °C (dec.) | Cc1c(F)ccc2c1NC(=O)C2=NO [Compound 1v, 6-Fluoro-7-methylisatin 3-oxime] |
| 268 to 270 °C | COc1c(F)ccc2c1NC(=O)C2=NO [Compound 1w, 6-Fluoro-7-methoxyisatin 3-oxime] |
